Measurements published in US20130184280A1, “SUBSTITUTED THIAZOLES AS VEGFR2 KINASE INHIBITORS” (TELIK, INC., priority 2011, published 2013).

Experiments:
[1] = In Vitro Cytotoxicity Assay HL60 (CellTiter-Glo); format: cell-based; details: human, HL60 promyelocytic leukemia cells; HL 60 cells, cultured three days
Experimental: (§1) The cell lines HL60 (human promyelocytic leukemia) and HCT116 (human colon carcinoma) were obtained from the American Type Culture Collection, Manassas, Va., U.S.A. All products were used in accordance with manufacturer's directions. The cytotoxicity assays were conducted in triplicate, in each case with solvent control.
(§2) Log-phase cells were trypsinized, collected by centrifugation, and resuspended in a small volume of fresh medium, and the density of viable cells was determined following Trypan Blue staining Cells were diluted in fresh media, the test compounds (concentrations between 0.1 μM and 200 μM, dissolved in DMSO, 50 μL) added immediately after dilution to achieve a final DMSO concentration of 0.5%, then the suspensions added at 150 μL/well to 96-well plates, and incubated overnight to allow attachment in the case of adherent cells. The cells were cultured for three days (about three doubling times). The cells were then collected by centrifugation, and 100 μL of the culture supernatant was replaced by the CellTiter-Glo reagent. After incubation for 15 minutes at room temperature, the plate was read with a luminometer. […] The table gives cytotoxicity IC50s in μm.

[2] = test system: HCT116 (human colon carcinoma); test: In Vivo HCT116 Xenograft Model; details: athymic nu/nu mice
VEGFR2 kinase = molecular target: T1, VEGFR2 kinase (Homo sapiens, UniProt P35968); test: In Vitro VEGFR2 Kinase Assay; format: biochemical; details: FP; CSKtide substrate, 60 minutes at room temperature
T1 construct: purchased InVitrogen
Experimental: In Vitro VEGFR2 Kinase Assay
50 ng/well VEGFR2 kinase (from InVitrogen) was mixed in buffer (14.5 μL/well). To this were added, 0.5 μL of the compound of this invention at a concentration of 2.5% in DMSO. After incubatiuon for 5 minutes at room temperature, 5 μL of substrate (CSKtide, 400 nM) and 8 μL ATP were added. The mixture was incubated for 60 minutes at room temperature and 60 uL of binding reagent (beads) was added. After incubation overnight at room temperature, the plate was read with a LJL plate reader.

[3] = In Vitro Cytotoxicity Assay HCT116 (CellTiter-Glo); format: cell-based; details: human, HCT116 colon carcinoma cells, cultured three days
Experimental: as §1, §2

[4] = 30 mg/Kg intraperitoneally once/day on days 1-5 and 8-12, measured 2 days after last treatment

T1 sequence (P35968 20-1356): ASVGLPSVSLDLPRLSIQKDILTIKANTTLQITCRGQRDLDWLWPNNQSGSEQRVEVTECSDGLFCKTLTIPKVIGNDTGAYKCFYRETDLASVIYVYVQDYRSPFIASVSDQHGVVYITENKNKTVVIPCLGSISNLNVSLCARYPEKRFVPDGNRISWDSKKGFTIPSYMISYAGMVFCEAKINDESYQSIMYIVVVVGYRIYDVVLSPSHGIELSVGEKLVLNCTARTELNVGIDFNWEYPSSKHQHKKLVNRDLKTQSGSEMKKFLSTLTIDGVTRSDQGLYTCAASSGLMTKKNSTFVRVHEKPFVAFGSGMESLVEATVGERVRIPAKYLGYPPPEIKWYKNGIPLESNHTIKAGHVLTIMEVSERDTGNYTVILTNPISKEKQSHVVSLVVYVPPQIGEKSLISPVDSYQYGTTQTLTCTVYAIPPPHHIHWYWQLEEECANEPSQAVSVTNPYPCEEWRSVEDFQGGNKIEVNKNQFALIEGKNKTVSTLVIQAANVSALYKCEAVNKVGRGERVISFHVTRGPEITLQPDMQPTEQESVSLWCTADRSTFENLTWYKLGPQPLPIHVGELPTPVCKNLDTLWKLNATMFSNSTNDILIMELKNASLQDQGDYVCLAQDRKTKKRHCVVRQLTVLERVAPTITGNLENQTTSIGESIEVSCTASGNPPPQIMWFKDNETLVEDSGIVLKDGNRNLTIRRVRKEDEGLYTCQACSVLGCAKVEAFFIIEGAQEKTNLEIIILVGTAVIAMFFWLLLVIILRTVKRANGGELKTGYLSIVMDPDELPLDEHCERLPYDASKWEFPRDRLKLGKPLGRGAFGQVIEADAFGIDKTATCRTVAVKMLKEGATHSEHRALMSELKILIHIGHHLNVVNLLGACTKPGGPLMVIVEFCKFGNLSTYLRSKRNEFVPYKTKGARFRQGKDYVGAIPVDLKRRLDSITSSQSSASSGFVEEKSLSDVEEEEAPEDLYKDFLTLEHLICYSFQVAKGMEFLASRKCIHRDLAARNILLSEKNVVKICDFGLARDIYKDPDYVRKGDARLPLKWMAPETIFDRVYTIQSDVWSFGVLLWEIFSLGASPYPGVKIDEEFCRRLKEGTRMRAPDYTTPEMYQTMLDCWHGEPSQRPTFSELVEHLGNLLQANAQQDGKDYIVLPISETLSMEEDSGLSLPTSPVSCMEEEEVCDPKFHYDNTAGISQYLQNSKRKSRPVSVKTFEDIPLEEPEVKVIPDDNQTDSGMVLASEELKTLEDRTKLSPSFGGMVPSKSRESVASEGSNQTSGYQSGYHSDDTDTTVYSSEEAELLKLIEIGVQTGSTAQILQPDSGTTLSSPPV

Row | IC50 (VEGFR2 kinase) [nM] | SMILES | IC50 at 3 days [1] [nM] | Tumor growth inhibition [2, 4] | IC50 at 3 days [3] [nM] | Tumor growth inhibition ([2]; administered orally)
1 | 20 | Nc1ncncc1-c1nc(-c2cccc(NC(=O)c3ccccc3)c2)cs1 [Compound 3] | 3000 | showed inhibition of tumor growth compared to vehicle | 20000 | 
2 | 10 | Cc1cccc(NC(=O)Nc2cccc(-c3csc(-c4cncnc4N)n3)c2)c1 [Compound 17, 1-(3-(2-(4-aminopyrimidin-5-yl)thiazol-4-yl)phenyl)-3-m-tolylurea] | 300 | showed inhibition of tumor growth compared to vehicle | 1000 | 
3 | 20 | Nc1ncncc1-c1nc(-c2cccc(NC(=O)Nc3cccc(CN4CCOCC4)c3)c2)cs1 [Compound 46] | 700 | showed inhibition of tumor growth compared to vehicle | 8000 | showed inhibition of tumor growth when administered orally
